8 molecules from BindingDB's records for doi:10.1016/j.ejmech.2018.07.023 (University of Copenhagen, 2018) can be followed below.

Molecules are shown by their SMILES. *1 amine or outer side, *2 acyl side, *3 side chain or, on linkers, in order; H or OH if unused. Where a SMILES comes first, the peptide text is derived from it. Bridges are numbered along the chain shown (N, C = ends). [ ]: non-standard residue; d: D form. Leu(3R-O(AcLeu(3R-OH))) = CC(=O)N[C@H](C(=O)O[C@H](C(C)C)[C@H](N)C(=O)O)[C@H](O)C(C)C; X1 = CC(C)[C@@H](O[*:3])[C@H](N[*:1])C(=O)[*:2]; NMeT = CN[C@H](C(=O)O)[C@@H](C)O; dPhLac = O=C(O)[C@H](O)Cc1ccccc1; NMeA = CN[C@@H](C)C(=O)O; NMeDha = C=C(NC)C(=O)O

The assay in a line: Inhibition of recombinant rat Gi coupled mGlu2 receptor expressed in CHO cells assessed as suppression of L-glutamate-induced decrease in cAMP level pretreated for 1 hr followed by L-glutamate/forskolin addition and measured after 30 mins by FRET assay.

For `C=C1C(=O)N[C@@H](C)C(=O)N(C)[C@@H](C)C(=O)N[C@@H]([C@H](OC(=O)[C@@H](NC(C)=O)[C@H](O)C(C)C)C(C)C)C(=O)N(C)[C@@H]([C@@H](C)OC)C(=O)O[C@@H](C)[C@H](NC(C)=O)C(=O)O[C@H](Cc2ccccc2)C(=O)N1C`, the IC50 is above 50 µM.
Then `C=C1C(=O)N[C@@H](C)C(=O)N(C)[C@@H](C)C(=O)N[C@@H]([C@H](OC(=O)[C@@H](NC(=O)CCCCC)[C@H](O)C(C)C)C(C)C)C(=O)N(C)[C@@H]([C@@H](C)OC)C(=O)O[C@H](C)[C@H](NC(C)=O)C(=O)O[C@H](Cc2ccccc2)C(=O)N1C`, with above 50 µM.
Take `C=C1C(=O)N[C@@H](C)C(=O)N(C)[C@@H](C)C(=O)N[C@@H]([C@H](OC(=O)[C@@H](NC(C)=O)[C@H](O)C(C)C)C(C)C)C(=O)N(C)[C@@H]([C@@H](C)OC)C(=O)O[C@H](C)[C@H](NC(C)=O)C(=O)O[C@H](CC(C)C)C(=O)N1C`: the IC50 was above 100 µM.
Take `C=C1C(=O)N[C@@H](C)C(=O)N(C)[C@@H](C)C(=O)N[C@@H]([C@H](OC(=O)[C@@H](NC(C)=O)[C@H](O)C(C)C)C(C)C)C(=O)N(C)[C@@H]([C@@H](C)OC)C(=O)OC[C@H](NC(C)=O)C(=O)O[C@H](Cc2ccccc2)C(=O)N1C`: the IC50 was above 50 µM.
The figure for `C=C1C(=O)N[C@@H](C)C(=O)N(C)[C@@H](C)C(=O)N[C@@H]([C@H](OC(=O)[C@@H](NC(=O)c2ccccc2)[C@H](O)C(C)C)C(C)C)C(=O)N(C)[C@@H]([C@@H](C)OC)C(=O)O[C@H](C)[C@H](NC(C)=O)C(=O)O[C@H](Cc2ccccc2)C(=O)N1C` is above 100 µM; for `C=C1C(=O)N[C@@H](C)C(=O)N(C)[C@@H](C)C(=O)N[C@@H]([C@H](OC(=O)[C@@H](NC(C)=O)[C@H](O)C(C)C)C(C)C)C(=O)N(C)[C@@H]([C@@H](C)OC)C(=O)O[C@H](C)[C@H](NC(C)=O)C(=O)O[C@H](Cc2ccccc2)C(=O)N1C` it is above 100 µM; for `CO[C@H](C)[C@H]1C(=O)O[C@H](C)[C@H](NC(C)=O)C(=O)O[C@H](CC(C)C)C(=O)N(C)[C@H](CO)C(=O)N[C@@H](C)C(=O)N(C)[C@@H](C)C(=O)N[C@@H]([C@H](OC(=O)[C@@H](NC(C)=O)[C@H](O)C(C)C)C(C)C)C(=O)N1C` it is above 100 µM.
`C=C1C(=O)N[C@@H](C)C(=O)N(C)[C@@H](C)C(=O)N[C@@H]([C@H](OC(=O)[C@@H](NC(C)=O)[C@H](O)C(C)C)C(C)C)C(=O)N(C)[C@@H]([C@@H](C)OC)C(=O)O[C@H](C(C)C)[C@H](NC(C)=O)C(=O)O[C@H](Cc2ccccc2)C(=O)N1C` (Ac-[X1][dPhLac][NMeDha]A[NMeA][Leu(3R-O(AcLeu(3R-OH)))][NMeT](Me); ester 1-C): the IC50 is above 50 µM.
